{
  "source": "ChEMBL document CHEMBL5727859",
  "about": "“Indole derivatives and use thereof” (2020)",
  "assay": "FLIPR Assays: In vitro assays were performed in a recombinant cell line expressing cDNA encoding the alpha subunit (Nav1.7, SCN9a, PN1, NE) of human Nav1.7 (Accession No. NM_002977). The cell line was provided by investigators at Yale University (Cummins et al, J. Neurosci. 18(23): 9607-9619 (1998)). For dominant selection of the Nav1.7-expressing clones, the expression plasmid co-expressed the neomycin resistance gene. The cell line was constructed in the human embryonic kidney cell line, HEK293, under the influence of the […], and stable clones were selected using limiting dilution cloning and antibiotic selection using the neomycin analogue, G418. Recombinant beta and gamma subunits were not introduced into this cell line. Additional cell lines expressing recombinant Nav1.7 cloned from other species can also be used, alone or in combination with various beta subunits, gamma subunits or chaperones.",
  "note": "pIC50: −log10 of the molar value.",
  "data": [
    {"smiles": "NC(=O)[C@H](O)[C@@H](O)c1cccc(-c2ccc3c(ccn3CC3CC3)c2)n1", "values": [
      {"measurement": "pIC50", "result": 2.99}
    ]}
  ]
}
